SMILES strings stand for the structures. Bounds are passed on as bounds.

The test addresses T1, Axl (Homo sapiens, UniProt P30530).
T1 construct: endogenous in cells; host or cells: HeLa cells
T1 sequence (P30530 26-894): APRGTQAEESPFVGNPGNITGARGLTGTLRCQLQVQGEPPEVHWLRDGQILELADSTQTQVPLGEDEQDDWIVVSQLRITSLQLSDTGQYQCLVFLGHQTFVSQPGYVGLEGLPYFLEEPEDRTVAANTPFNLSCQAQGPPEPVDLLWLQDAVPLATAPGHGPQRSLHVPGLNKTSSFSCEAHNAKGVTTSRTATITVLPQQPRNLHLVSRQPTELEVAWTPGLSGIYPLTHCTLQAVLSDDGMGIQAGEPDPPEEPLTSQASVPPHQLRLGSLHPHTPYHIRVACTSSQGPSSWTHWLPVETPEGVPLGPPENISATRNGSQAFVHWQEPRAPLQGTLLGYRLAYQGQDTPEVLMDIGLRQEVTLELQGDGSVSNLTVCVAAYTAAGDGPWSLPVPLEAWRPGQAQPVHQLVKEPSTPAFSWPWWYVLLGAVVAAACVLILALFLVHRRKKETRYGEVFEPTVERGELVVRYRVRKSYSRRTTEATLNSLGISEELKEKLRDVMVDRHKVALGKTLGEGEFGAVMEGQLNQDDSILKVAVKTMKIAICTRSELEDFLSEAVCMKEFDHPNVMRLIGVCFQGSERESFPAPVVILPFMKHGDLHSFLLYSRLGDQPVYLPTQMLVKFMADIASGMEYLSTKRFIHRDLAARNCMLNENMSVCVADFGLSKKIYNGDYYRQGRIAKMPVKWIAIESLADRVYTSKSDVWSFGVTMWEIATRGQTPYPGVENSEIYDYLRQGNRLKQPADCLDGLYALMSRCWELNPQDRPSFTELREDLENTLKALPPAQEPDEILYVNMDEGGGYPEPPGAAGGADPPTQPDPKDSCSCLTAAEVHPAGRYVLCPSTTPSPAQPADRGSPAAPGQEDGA
As to the kind of experiment: Phospho-Akt in-cell Western assay (inhibition of Axl activity, Axl-antibody cross-linking stimulation). It counts as cell-based. Conditions: Hela cells, phospho-Akt readout. An outline of the steps:
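HeLa cells on poly-L-lysine were starved 24 h in 0.5% FCS/DMEM with 500 ng/mL Axl/Fc, pre-treated with compound 1 h at 37 °C, then stimulated 5 min by cross-linked mouse anti-Axl/biotin anti-mouse antibody clusters. After formaldehyde fixation, phospho-Akt was detected by rabbit anti-phospho-Akt and HRP secondary with chemiluminescence read-out.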

Where [1] appears, read: compounds of formula (Ia), Table 1.
[2] abbreviates: compounds of formula (Ib), Table 2.

For `Cc1csc2c(-n3nc(Nc4ccc(N5CCC(N6CCCC6)CC5)nc4)nc3N)nc(Cl)nc12` [compound 17, 1-(2-chloro-7-methyithieno [3,2-d]pyrimidine-4-yl)-N^3-(6-(4-(pyrrolidin-1-yl)piperidin-1-yl)pyridine-3-yl)-1H-1,2,4-triazole-3,5-diamine], the IC50 (commonly the point on the concentration scale where inhibition reaches its midpoint) under setting [1] was less than 1000 nM.
Same read-out and setting: in the case of `Cc1csc2c(-n3nc(Nc4cnc5c(c4)CN(C)CC5)nc3N)nc(Cl)nc12` [compound 14, 1-(2-chloro-7-methylthieno [3,2-d]pyrimidine-4-yl)-N^3-(6-methyl-5,6,7,8-tetrahydro-1,6-naphthyridin-3-yl)-1H-1,2,4-triazole-3,5-diamine] it was greater than 20000 nM; in that of `CCN(CC)C1CCN(C/C=C/c2ccc(Nc3nc(N)n(-c4ncnc5c(C)csc45)n3)cn2)C1` (stereo not drawn) [compound 121, 1-(7-methylthieno [3,2-d]pyrimidin-4-yl)-N^3-(2-(3-(3-diethyl-amino-pyrrolidin-1-yl)propen-1-yl)pyridin-5-yl)-1H-1,2,4-triazole-3,5-diamine], less than 1000 nM; in that of `COc1cc2ncnc(-n3nc(Nc4ccc5c(c4)OCCO5)nc3N)c2cc1OC` [compound 5, N^3-(2,3-dihydrobenzo [b][1,4]dioxin-6-yl)-1-(6,7-dimethoxy-quinazolin-4-yl)-1H-1,2,4-triazole-3,5-diamine], less than 1000 nM.
Consider `CCN(CC)CC1CCCN1c1ccc(Nc2nc(N)n(-c3ncnc4cc(OC)c(OC)cc34)n2)cn1` (stereo not drawn) [compound 39, 1-(6,7-dimethoxy-quinazoline-4-yl)-N^3-(6-(2-diethyl-aminomethyl-pyrrolidin-1-yl)pyridin-3-yl)-1H-1,2,4-triazole-3,5-diamine], for which the IC50 under setting [1] was less than 1000 nM.
In turn, `CN1CCN(c2ccc(Nc3nc(N)n(-c4nccc5ccccc45)n3)cn2)CC1` [compound 31, 1-(isoquinolin-1-yl)-N^3-(6-(4-methyl-piperazin-1-yl)pyridin-3-yl)-1H-1,2,4-triazole-3,5-diamine] returned an IC50 under setting [1] of less than 1000 nM.
Regarding `COc1cc2ncnc(-n3nc(Nc4cnc(N5CCC(CN6CCCCC6)CC5)nc4)nc3N)c2cc1OC` [compound 63, 1-(6,7-dimethoxy-quinazoline-4-yl)-N^3-(2-(4-piperidin-1-ylmethyl-piperidin-1-yl)pyrimidin-5-yl)-1H-1,2,4-triazole-3,5-diamine], the IC50 under setting [1] lay within 1000 to 10000 nM.
Same read-out and setting: for `Cc1csc2c(-n3nc(Nc4cnc5c(c4)CN(CCN(C)C)CC5)nc3N)nc(Cl)nc12` [compound 50, 1-(2-chloro-7-methylthieno [3,2-d]pyrimidine-4-yl)-N^3-(6-(2-dimethyl-aminoethyl)-5,6,7,8-tetrahydro-1,6-naphthyridin-3-yl)-1H-1,2,4-triazole-3,5-diamine] the value was less than 1000 nM.
The compound `CCN(CC)C1CCN(c2ccc(Nc3nc(N)n(-c4nc(Cl)nc5c(C)csc45)n3)cn2)C1` (stereo not drawn) [compound 44, 1-(2-chloro-7-methylthieno [3,2-d]pyrimidin-4-yl)-N^3-(6-(3-diethylamino-pyrrolidin-1-yl)pyridin-3-yl)-1H-1,2,4-triazole-3,5-diamine] registered an IC50 under setting [1] of less than 1000 nM.
As for `Cc1csc2c(-n3nc(Nc4cnc5c(c4)CN(C4CC6CCC4C6)CC5)nc3N)nc(Cl)nc12` (stereo not drawn) [compound 102, 1-(2-chloro-7-methylthieno [3,2-d]pyrimidin-4-yl)-N^3-(6-bicyclo[2.2.1]heptan-2-yl-5,6,7,8-tetrahydro-1,6-naphthyridin-3-yl)-1H-1,2,4-triazole-3,5-diamine], the IC50 under setting [1] is less than 1000 nM.
Consider `Cc1csc2c(-n3nc(Nc4ccc(N5CCCN(C6CCCC6)CC5)nc4)nc3N)nc(Cl)nc12` [compound 10, 1-(2-chloro-7-methylthieno [3,2-d]pyrimidine-4-yl)-N^3-(6-(4-cyclopentyl-1,4-diazepan-1-yl)pyridin-3-yl)-1H-1,2,4-triazole-3,5-diamine], for which, under setting [1], the IC50 is less than 1000 nM.
For the compound `COc1cc2ncnc(-n3nc(Nc4cnc(N5CCC(N6CCCC6)CC5)c(C)c4)nc3N)c2cc1OC` [compound 42, 1-(6,7-dimethoxy-quinazoline-4-yl)-N^3-(6-(4-(pyrrolidin-1-yl)piperidin-1-yl)-5-methylpyridin-3-yl)-1H-1,2,4-triazole-3,5-diamine], under setting [1], the IC50 was less than 1000 nM.
In turn, `Cc1cc(Nc2nc(N)n(-c3ncnc4sc5c(c34)CCC5)n2)cnc1N1CCC(N2CCCC2)CC1` [compound 54, 1-(6,7-dihydro-5H-cyclopenta [4,5]thieno[2,3-d]pyrimidin-4-yl)-N^3-(6-(4-(pyrrolidin-1-yl)piperidin-1-yl)-5-methyl-pyridin-3-yl)-1H-1,2,4-triazole-3,5-diamine] registered a concentration for half-maximal inhibition (IC50) under setting [1] of less than 1000 nM.
With `Cc1cc(Nc2nc(N)nn2-c2nc(Cl)nc3c(C)csc23)cnc1N1CCC(N2CCCC2)CC1` [compound 92, 1-(2-chloro-7-methylthieno[3,2-d]pyrimidin-4-yl)-N^5-(6-(4-(pyrrolidin-1-yl)piperidin-1-yl)-5-methylpyridin-3-yl)-1H-1,2,4-triazole-3,5-diamine], under setting [2], the IC50 is 1000 to 10000 nM.
On to `Cc1csc2c(-n3nc(Nc4ccc(N5CCN(C6CC7CCC6C7)CC5)nc4)nc3N)nc(Cl)nc12` (stereo not drawn) [compound 24, 1-(2-chloro-7-methylthieno [3,2-d]pyrimidine-4-yl)-N^3-(6-(4-(bicyclo[2.2.1]heptan-2-yl)piperazin-1-yl)pyridin-3-yl)-1H-1,2,4-triazole-3,5-diamine], for which the IC50 under setting [1] was less than 1000 nM.
In turn, `Cc1cc(Nc2nc(N)n(-c3ncnc4c(C)csc34)n2)cnc1N1CCN(C2CC3CCC2C3)CC1` (stereo not drawn) [compound 72, 1-(7-methylthieno [3,2-d]pyrimidine-4-yl)-N^3-(5-methyl-6-(4-bicyclo [2.2.1]heptan-2-ylpiperazin-1-yl)pyridine-3-yl)-1H-1,2,4-triazole-3,5-diamine] yielded an IC50 under setting [1] of less than 1000 nM.
For `Cc1csc2c(-n3nc(Nc4cnc(N5CCC(CN6CCCCC6)CC5)nc4)nc3N)nc(Cl)nc12` [compound 131, 1-(2-chloro-7-methylthieno [3,2-d]pyrimidin-4-yl)-N^3-(2-(4-(piperidin-1-ylmethyl)piperidin-1-yl)pyrimidin-5-yl)-1H-1,2,4-triazole-3,5-diamine], the IC50 under setting [1] is less than 1000 nM.
Under setting [1], `Cc1csc2c(-n3nc(Nc4ccc(N5CCN(CC6CC6)[C@@H](C)C5)nc4)nc3N)ncnc12` [compound 116, 1-(7-methyl-thieno[3,2-d]pyrimidin-4-yl)-N^3-(2-(4-cyclo-propylmethyl-3-(S)-methyl-piperazin-1-yl)pyridin-5-yl)-1H-1,2,4-triazole-3,5-diamine] displayed an IC50 of less than 1000 nM.
As for `Cc1csc2c(-n3nc(Nc4cnc(N5CCN([C@H]6CC7CCC6C7)CC5)c(Cl)c4)nc3N)ncnc12` (stereo partly drawn) [compound 110, 1-(7-methylthieno [3,2-d]pyrimidin-4-yl)-N^3-(2-(4-(2S)-bicyclo[2.2.1]heptan-2-ylpiperazin-1-yl)-3-chloropyridin-5-yl)-1H-1,2,4-triazole-3,5-diamine], the IC50 under setting [1] is 10000 to 20000 nM.
Still for that read-out and setting: for `Cc1csc2c(-n3nc(Nc4ccc(N5CCN(C)CC5)nc4)nc3N)nc(Cl)nc12` [compound 15, 1-(2-chloro-7-methylthieno [3,2-d]pyrimidine-4-yl)-N^3-(6-(4-methyl-piperazin-1-yl)pyridin-3-yl)-1H-1,2,4-triazole-3,5-diamine] the value was less than 1000 nM.
With `Cc1csc2c(-n3nc(N)nc3Nc3ccc(C=CCN4CCC(N5CCN(C)CC5)CC4)nc3)ncnc12` [compound 133, 1-(7-methylthieno[3,2-d]pyrimidin-4-yl)-N^5-(2-(3-(4-(4-methylpiperazin-1-yl)piperidin-1-yl)propen-1-yl)pyridin-5-yl)-1H-1,2,4-triazole-3,5-diamine], under setting [2], the IC50 is less than 1000 nM.
With `Cc1csc2c(-n3nc(Nc4cnc5c(c4)CC(NC4CCCC4)CC5)nc3N)ncnc12` (stereo not drawn) [compound 99, 1-(7-methylthieno [3,2-d]pyrimidin-4-yl)-N^3-(6-cyclopentyl-amino-5,6,7,8-tetrahydro-quinolin-3-yl)-1H-1,2,4-triazole-3,5-diamine], the IC50 under setting [1] is less than 1000 nM.
In turn, `Cc1cc(Nc2nc(N)n(-c3nc(Cl)nc4c(C)csc34)n2)cnc1N1CCN(CC2CC2)CC1` [compound 95, 1-(2-chloro-7-methylthieno [3,2-d]pyrimidin-4-yl)-N^3-(6-(4-(cyclopropyl-methyl)piperazin-1-yl)-5-methyl-pyridin-3-yl)-1H-1,2,4-triazole-3,5-diamine] registered an IC50 under setting [1] of less than 1000 nM.
Consider `Cc1csc2c(-n3nc(Nc4cnc5c(c4)CN(C4CCCC4)CC5)nc3N)ncnc12` [compound 97, 1-(7-methylthieno [3,2-d]pyrimidin-4-yl)-N^3-(6-cyclopentyl-5,6,7,8-tetrahydro-1,6-naphthyridin-3-yl)-1H-1,2,4-triazole-3,5-diamine], for which the IC50 under setting [1] was less than 1000 nM.

The values are drawn from patent US8796259B2, “N3-heteroaryl substituted triazoles and N5-heteroaryl substituted triazoles useful as axl inhibitors” (Rigel Pharmaceuticals, Inc., priority 2006, dated 2014).
